From US5238962A, “Benzamide derivatives” (Hoffmann-La Roche Inc., priority 1983, dated 1993) come the findings set out here.

One series has as its target T1, monoamine oxidase (MAO) (Rattus norvegicus, UniProt P19643).
T1 construct: from tissue; host or cells: rat brain and liver homogenates
T1 sequence (P19643 1-520): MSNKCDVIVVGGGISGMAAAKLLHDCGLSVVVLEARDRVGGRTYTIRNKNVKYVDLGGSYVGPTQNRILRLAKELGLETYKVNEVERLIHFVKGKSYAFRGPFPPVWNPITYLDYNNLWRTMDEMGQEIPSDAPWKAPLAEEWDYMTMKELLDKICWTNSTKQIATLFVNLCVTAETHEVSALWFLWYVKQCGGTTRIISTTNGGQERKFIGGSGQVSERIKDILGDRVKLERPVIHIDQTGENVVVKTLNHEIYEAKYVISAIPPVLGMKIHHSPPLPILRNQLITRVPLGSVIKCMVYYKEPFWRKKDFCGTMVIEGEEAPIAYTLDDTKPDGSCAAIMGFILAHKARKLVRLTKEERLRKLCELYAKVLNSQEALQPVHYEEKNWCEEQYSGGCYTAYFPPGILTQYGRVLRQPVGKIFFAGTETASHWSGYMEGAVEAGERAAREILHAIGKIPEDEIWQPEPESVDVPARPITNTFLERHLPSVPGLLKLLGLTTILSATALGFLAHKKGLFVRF
Briefly: MAO inhibiting activity in homogenates of brain and liver of rats after oral administration (phenethylamine as substrate). The settings on record: 2 h, p.o. in rats, killed two hours after administration, homogenates of the brain and the liver, phenethylamine 2.10^-5 mol.1^-1 as substrate. It counts as in vivo. On the procedure:
The MAO inhibiting activity of the compounds of formula I and their pharmaceutically acceptable addition salts can be determined using standard methods. Thus, the substances to be tested were administered orally to rats. Two hours thereafter the animals were killed and the MAO inhibiting activity was measured in homogenates of the brain and the liver according to the method described in Biochem. Pharmacol. 12 (1963) 1439-1441, but using phenethylamine (2.10^-5 mol. 1^-1) in place of tyramine as the substrate.

Series [1] is described as follows: toxicity (LD50, p.o. in mice). The settings on record: mouse, in vivo, po.

Take `NCCNC(=O)c1ccccc1` [N-(2-Aminoethyl)benzamide]: at monoamine oxidase (MAO), the ED50 (usually the dose that gives a 50% effect, or the effect in half of the subjects) stood at 20 µmol/kg. Besides, the LD50 (commonly the dose at which mortality reaches 50%) in series [1] is above 5000 mg/kg.
On to `NCCNC(=O)c1ccc(Cl)cc1` [N-(2-Aminoethyl)-p-chlorobenzamide], for which, in series [1], the LD50 fell in the range of 1000 to 2000 mg/kg.
Regarding `NCCNC(=O)c1ccc(Cl)cc1Cl` [N-(2-Aminoethyl)-2,4-dichlorobenzamide, N-(2-aminoethyl)-2,4-dichlorobenzamide], on monoamine oxidase (MAO), the 50% effect level (ED50) was put at a dose of 1.5 µmol/kg. In addition, the LD50 in series [1] was 625 to 1250 mg/kg.
For `NCCNC(=O)c1ccc(F)cc1` [N-(2-Aminoethyl)-p-fluorobenzamide] the same measures were 4 µmol/kg and above 5000 mg/kg.
For `NCCNC(=O)c1ccc(Cl)c(Cl)c1` [N-(2-Aminoethyl)-3,4-dichlorobenzamide, N-(2-aminoethyl)-3,4-dichlorobenzamide] the same measures were 10.3 µmol/kg and 1000 to 2000 mg/kg.
`NCCNC(=O)c1ccc(Br)cc1` [N-(2-Aminoethyl)-p-bromobenzamide] came in with a 50% effective dose (ED50) at monoamine oxidase (MAO) of 4 µmol/kg. In series [1], this molecule showed an LD50 of 500 to 1000 mg/kg.
